Key:
Type in all cases: cell-based
[1] = test system: HL-60(TB); assay: NCI 60 five-dose screen HL-60(TB); settings: Homo sapiens, five-dose
[2] = test system: K-562; assay: NCI 60 five-dose screen K-562; settings: Homo sapiens, K562, five-dose
[3] = test system: A549/ATCC; assay: NCI 60 five-dose screen A549/ATCC; settings: Homo sapiens, five-dose
[4] = test system: HOP-62; assay: NCI 60 five-dose screen HOP-62; settings: Homo sapiens, five-dose
[5] = test system: HOP-92; assay: NCI 60 five-dose screen HOP-92; settings: Homo sapiens, five-dose
[6] = test system: NCI-H226; assay: NCI 60 five-dose screen NCI-H226; settings: Homo sapiens, five-dose
[7] = test system: NCI-H322M; assay: NCI 60 five-dose screen NCI-H322M; settings: Homo sapiens, five-dose
[8] = test system: COLO 205; assay: NCI 60 five-dose screen COLO 205; settings: Homo sapiens, five-dose
[9] = test system: HCC-2998; assay: NCI 60 five-dose screen HCC-2998; settings: Homo sapiens, five-dose
[10] = test system: KM12; assay: NCI 60 five-dose screen KM12; settings: Homo sapiens, five-dose
[11] = test system: SF-268; assay: NCI 60 five-dose screen SF-268; settings: Homo sapiens, five-dose
[12] = test system: SNB-75; assay: NCI 60 five-dose screen SNB-75; settings: Homo sapiens, five-dose
[13] = test system: U251; assay: NCI 60 five-dose screen U251; settings: Homo sapiens, U-251, five-dose
[14] = test system: LOX IMVI; assay: NCI 60 five-dose screen LOX IMVI; settings: Homo sapiens, five-dose
[15] = test system: SK-MEL-28; assay: NCI 60 five-dose screen SK-MEL-28; settings: Homo sapiens, five-dose
[16] = test system: SK-MEL-5; assay: NCI 60 five-dose screen SK-MEL-5; settings: Homo sapiens, five-dose
[17] = test system: UACC-257; assay: NCI 60 five-dose screen UACC-257; settings: Homo sapiens, five-dose
[18] = test system: OVCAR-3; assay: NCI 60 five-dose screen OVCAR-3; settings: Homo sapiens, five-dose
[19] = test system: OVCAR-5; assay: NCI 60 five-dose screen OVCAR-5; settings: Homo sapiens, five-dose
[20] = test system: OVCAR-8; assay: NCI 60 five-dose screen OVCAR-8; settings: Homo sapiens, five-dose
[21] = test system: NCI/ADR-RES; assay: NCI 60 five-dose screen NCI/ADR-RES; settings: Homo sapiens, five-dose
[22] = test system: A498; assay: NCI 60 five-dose screen A498; settings: Homo sapiens, five-dose
[23] = test system: TK-10; assay: NCI 60 five-dose screen TK-10; settings: Homo sapiens, five-dose
[24] = test system: UO-31; assay: NCI 60 five-dose screen UO-31; settings: Homo sapiens, five-dose
[25] = test system: DU-145; assay: NCI 60 five-dose screen DU-145; settings: Homo sapiens, five-dose
[26] = test system: HS 578T; assay: NCI 60 five-dose screen HS 578T; settings: Homo sapiens, five-dose
[27] = test system: T-47D; assay: NCI 60 five-dose screen T-47D; settings: Homo sapiens, T47D, five-dose
[28] = test system: MDA-MB-468; assay: NCI 60 five-dose screen MDA-MB-468; settings: Homo sapiens, five-dose
[29] = read-out: LC50 (the source's name) (converted)
[30] = read-out: LC50 (the source's name)

Compound: FC(F)(F)c1cc2c(Cl)ncnc2n1CCN1CCCCC1 [NUCC-0226679]
- GI50 [1]: 2.09 µM
- IC50 [1]: 4.37 µM
- IC (TGI) [1]: 7.41 µM
- CC50 [1, 29]: ≥ 100 µM
- GI50 [2]: 2.88 µM
- IC50 [2]: 3.63 µM
- IC (TGI) [2]: 100 µM
- CC50 [2, 30]: ≥ 100 µM
- GI50 [3]: 79.4 µM
- IC50 [3]: 100 µM
- IC (TGI) [3]: 100 µM
- CC50 [3, 29]: ≥ 100 µM
- GI50 [4]: 38 µM
- IC50 [4]: 100 µM
- IC (TGI) [4]: 100 µM
- CC50 [4, 29]: ≥ 100 µM
- GI50 [5]: 19.5 µM
- IC50 [5]: 63.1 µM
- IC (TGI) [5]: 53.7 µM
- CC50 [5, 29]: ≥ 100 µM
- GI50 [6]: 60.3 µM
- IC50 [6]: 100 µM
- IC (TGI) [6]: 100 µM
- CC50 [6, 29]: ≥ 100 µM
- GI50 [7]: 15.5 µM
- IC50 [7]: 36.3 µM
- IC (TGI) [7]: 43.7 µM
- CC50 [7, 29]: ≥ 100 µM
- GI50 [8]: 52.5 µM
- IC50 [8]: 100 µM
- IC (TGI) [8]: 100 µM
- CC50 [8, 29]: ≥ 100 µM
- GI50 [9]: 4.07 µM
- IC50 [9]: 8.32 µM
- IC (TGI) [9]: 14.5 µM
- CC50 [9, 29]: 40.7 µM
- GI50 [10]: 29.5 µM
- IC50 [10]: 41.7 µM
- IC (TGI) [10]: 100 µM
- CC50 [10, 29]: ≥ 100 µM
- GI50 [11]: 16.2 µM
- IC50 [11]: 30.9 µM
- IC (TGI) [11]: 38.9 µM
- CC50 [11, 29]: 93.3 µM
- GI50 [12]: 10.5 µM
- IC50 [12]: 22.9 µM
- IC (TGI) [12]: 22.4 µM
- CC50 [12, 29]: 47.9 µM
- GI50 [13]: 14.1 µM
- IC50 [13]: 22.9 µM
- IC (TGI) [13]: 34.7 µM
- CC50 [13, 29]: 87.1 µM
- GI50 [14]: 1.7 µM
- IC50 [14]: 2.95 µM
- IC (TGI) [14]: 3.09 µM
- CC50 [14, 29]: 5.75 µM
- GI50 [15]: 15.8 µM
- IC50 [15]: 30.2 µM
- IC (TGI) [15]: 38 µM
- CC50 [15, 29]: 89.1 µM
- GI50 [16]: 14.8 µM
- IC50 [16]: 26.3 µM
- IC (TGI) [16]: 30.9 µM
- CC50 [16, 29]: 64.6 µM
- GI50 [17]: 11.7 µM
- IC50 [17]: 25.1 µM
- IC (TGI) [17]: 30.2 µM
- CC50 [17, 29]: 77.6 µM
- GI50 [18]: 17.8 µM
- IC50 [18]: 33.1 µM
- IC (TGI) [18]: 35.5 µM
- CC50 [18, 29]: 72.4 µM
- GI50 [19]: 100 µM
- IC50 [19]: 100 µM
- IC (TGI) [19]: 100 µM
- CC50 [19, 29]: ≥ 100 µM
- GI50 [20]: 12.6 µM
- IC50 [20]: 20.4 µM
- IC (TGI) [20]: 33.1 µM
- CC50 [20, 29]: 87.1 µM
- GI50 [21]: 24 µM
- IC50 [21]: 42.7 µM
- IC (TGI) [21]: 64.6 µM
- CC50 [21, 29]: ≥ 100 µM
- GI50 [22]: 100 µM
- IC50 [22]: 100 µM
- IC (TGI) [22]: 100 µM
- CC50 [22, 29]: ≥ 100 µM
- GI50 [23]: 100 µM
- IC50 [23]: 100 µM
- IC (TGI) [23]: 100 µM
- CC50 [23, 29]: ≥ 100 µM
- GI50 [24]: 1.74 µM
- IC50 [24]: 3.31 µM
- IC (TGI) [24]: 3.55 µM
- CC50 [24, 29]: 7.41 µM
- GI50 [25]: 30.2 µM
- IC50 [25]: 50.1 µM
- IC (TGI) [25]: 100 µM
- CC50 [25, 29]: ≥ 100 µM
- GI50 [26]: 16.6 µM
- IC50 [26]: 100 µM
- IC (TGI) [26]: 60.3 µM
- CC50 [26, 30]: ≥ 100 µM
- GI50 [27]: 21.9 µM
- IC50 [27]: 70.8 µM
- IC (TGI) [27]: 100 µM
- CC50 [27, 30]: ≥ 100 µM
- GI50 [28]: 3.02 µM
- IC50 [28]: 18.2 µM
- IC (TGI) [28]: 9.33 µM
- CC50 [28, 29]: 38.9 µM
